This note sets out measurements from patent publication US20070015822A1, “Methods for selectively treating COX-2 mediated disorders by administering gamma-tocopherol” (priority 2005, published 2007).

Common to all, as to type: in vivo, dog
One assay addresses T1, COX-1 (Canis lupus familiaris, UniProt Q8HZR1).
T1 construct: from tissue
T1 sequence (Q8HZR1 28-603): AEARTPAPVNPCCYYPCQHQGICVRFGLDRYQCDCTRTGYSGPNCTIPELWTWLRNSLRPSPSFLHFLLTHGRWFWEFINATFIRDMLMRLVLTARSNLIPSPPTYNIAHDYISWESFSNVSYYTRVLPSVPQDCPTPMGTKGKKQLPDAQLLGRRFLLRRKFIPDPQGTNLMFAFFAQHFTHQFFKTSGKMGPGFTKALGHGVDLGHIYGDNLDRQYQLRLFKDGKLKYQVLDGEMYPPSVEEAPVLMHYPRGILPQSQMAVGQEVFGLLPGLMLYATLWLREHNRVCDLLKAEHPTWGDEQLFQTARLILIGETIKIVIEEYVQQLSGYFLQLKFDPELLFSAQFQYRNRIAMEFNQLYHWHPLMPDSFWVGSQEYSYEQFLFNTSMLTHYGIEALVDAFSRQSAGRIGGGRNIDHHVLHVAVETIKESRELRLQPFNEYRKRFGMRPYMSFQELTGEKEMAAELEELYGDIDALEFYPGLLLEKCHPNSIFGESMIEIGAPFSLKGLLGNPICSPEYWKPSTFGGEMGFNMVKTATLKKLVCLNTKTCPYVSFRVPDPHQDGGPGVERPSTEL
Description: COX-1 IC50 determination in dogs. The settings on record: six dogs; γ-tocopherol tested as tocopherol composition comprising 66.6% gamma-tocopherol.

The target in another assay is T2, COX-2 (Canis lupus familiaris, UniProt Q8SPQ9).
T2 sequence (Q8SPQ9 18-604): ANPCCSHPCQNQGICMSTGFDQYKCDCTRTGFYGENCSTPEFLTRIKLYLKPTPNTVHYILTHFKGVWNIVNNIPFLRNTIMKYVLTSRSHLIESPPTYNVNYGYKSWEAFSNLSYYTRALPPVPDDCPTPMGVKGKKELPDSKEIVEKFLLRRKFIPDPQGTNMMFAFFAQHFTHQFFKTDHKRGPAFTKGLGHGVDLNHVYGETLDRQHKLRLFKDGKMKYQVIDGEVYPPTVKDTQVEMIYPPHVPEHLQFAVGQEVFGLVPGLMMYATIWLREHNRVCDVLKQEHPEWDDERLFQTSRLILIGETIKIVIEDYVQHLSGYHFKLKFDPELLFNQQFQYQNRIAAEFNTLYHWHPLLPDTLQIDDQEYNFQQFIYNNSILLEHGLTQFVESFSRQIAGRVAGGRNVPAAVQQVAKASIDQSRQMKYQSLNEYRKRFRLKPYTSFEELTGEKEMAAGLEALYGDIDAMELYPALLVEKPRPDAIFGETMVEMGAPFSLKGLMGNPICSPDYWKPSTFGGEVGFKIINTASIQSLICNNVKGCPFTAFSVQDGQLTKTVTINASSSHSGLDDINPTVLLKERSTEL
Description: COX-2 IC50 determination in dogs. More on the design: from tissue. The conditions noted are these: for COX-1:COX-2: ratio of COX-1 IC50 to COX-2 IC50 (selectivity).

The test system of the next assay is urate-induced lameness. The assay can be described thus: crystal urate-induced lameness model in dogs. The conditions noted are these: 10 or 100 mg/kg body weight, 66.4% w/w or 90.9% w/w gamma-tocopherol. How it is done:
A study was conducted to evaluate the effectiveness of the inventive formulations using the crystal urate-induced lameness model dogs. Formulations according to the invention and comprising 66.4% w/w or 90.9% w/w gamma-tocopherol and at 10 and 100 mg/kg body weight were administered to the dogs.

Setting [1] is: six dogs, γ-tocopherol tested as tocopherol composition comprising 66.6% gamma-tocopherol, read-out: COX-2 IC50.

Where two headings read alike, the source gives them in different places.

By IC50 is commonly meant the midpoint of a concentration-inhibition curve. On COX-1, `CC(C(=O)O)c1ccc2c(c1)[nH]c1ccc(Cl)cc12` (stereo not shown) [Carprofen] showed a 50% inhibitory concentration (IC50) of 68.6 µM. In addition, on COX-2, the IC50 was 10 µM and the “COX-1:COX-2” value was 7.

With `CC1(C)OC(=O)C(OCC2CC2)=C1c1ccc(S(C)(=O)=O)cc1` [Firocoxib], the IC50 was 119 µM at COX-1 and 0.31 µM at COX-2 (setting [1]). The “COX-1:COX-2” value on COX-2 amounted to 384.

With `Cc1c(O)cc2c(c1C)O[C@](C)(CCC[C@H](C)CCC[C@H](C)CCCC(C)C)CC2` [γ-Tocopherol, 3,4-dihydro-2,7,8-trimethyl-2-(4,8,12-trimethyltridecyl)-2H-1-benzyopyran-6-ol], the “COX-1 IC50” value on COX-1 was “No activity”. Also, the “degree of force upon the urate-treated joints tolerated” value in the assay with urate-induced lameness (FIGS. 3-4) is “increased”. The “degree of lameness (urate-induced)” value in the assay on urate-induced lameness (after 8 hours, FIGS. 1-2) is on record as “Improvement in the degree of lameness”. Besides, the IC50 at COX-2 (setting [1]) was 27.8 µM.
